Measurements reported in ChEMBL document CHEMBL1649300, “Bacterial strain-to-strain variation in pharmacodynamic index magnitude, a hitherto unconsidered factor in establishing antibiotic clinical breakpoints” (2009).
In brackets after ≈: the same amount, converted by molar mass.

Assays:
Staphylococcus aureus [1] = experiment: Antibacterial activity against Staphylococcus aureus SMH36633 by broth dilution method
Staphylococcus aureus [2] = experiment: Antibacterial activity against Staphylococcus aureus SMH37099 by broth dilution method
Staphylococcus aureus [3] = experiment: Antibacterial activity against Staphylococcus aureus SMH37312 by broth dilution method
Staphylococcus aureus [4] = experiment: Antibacterial activity against Staphylococcus aureus SMH37390 by broth dilution method; type: functional
Staphylococcus aureus [5] = experiment: Antibacterial activity against Staphylococcus aureus SMH38004 by broth dilution method; type: functional
Staphylococcus aureus [6] = experiment: Antibacterial activity against Staphylococcus aureus SMH37276 by broth dilution method; type: functional
Staphylococcus aureus [7] = experiment: Antibacterial activity against Staphylococcus aureus SMH36742 by broth dilution method
Staphylococcus aureus [8] = experiment: Antibacterial activity against Staphylococcus aureus SMH36945 by broth dilution method

COc1c(N2C[C@@H]3CCCN[C@@H]3C2)c(F)cc2c(=O)c(C(=O)O)cn(C3CC3)c12 [MOXIFLOXACIN]
MIC (Staphylococcus aureus [1]): 0.03 µg/mL (≈ 0.0747 µM) | MIC (Staphylococcus aureus [2]): 0.03 µg/mL (≈ 0.0747 µM) | MIC (Staphylococcus aureus [3]): 0.03 µg/mL (≈ 0.0747 µM) | MIC (Staphylococcus aureus [4]): 0.04 µg/mL (≈ 0.0996 µM) | MIC (Staphylococcus aureus [5]): 0.09 µg/mL (≈ 0.224 µM) | MIC (Staphylococcus aureus [6]): 0.7 µg/mL (≈ 1.74 µM) | MIC (Staphylococcus aureus [7]): 1 µg/mL (≈ 2.49 µM) | MIC (Staphylococcus aureus [8]): 2 µg/mL (≈ 4.98 µM)
